Read-outs that look alike come from different tables or passages of the source.
Tests used:
human β3-AR = human β3-AR (Homo sapiens, UniProt P13945); assay: cAMP accumulation in CHO-K1 cells expressing human β3-AR; details: for EC50: EC50 β3-AR; for β3-AR selectivity vs β1-AR / β3-AR selectivity vs β2-AR: comparison between EC50 values; for cAMP activity at Cmax,u / cAMP activity at Cmin,u: from dose-response curve, β3-AR cells TF 0.025 μg/well;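 for all read-outs here: CHO-K1 cells transiently transfected with a β-AR expression plasmid, cAMP assayed roughly 24 h post-transfection, values derived from agonist concentration–response curves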
Protocol: (§1) Chinese hamster ovary (CHO)-K1 cells (DS Pharma Biomedical Co., Ltd., Osaka, Japan) were cultured in Ham’s F-12 medium containing 10% fetal bovine serum under 5% CO2 at 37°C. For cAMP assay, 2×10^5 cells/mL were inoculated onto a 96-well plate at 100 μL/well. […] The cells were cultured for about 24 h and used for β-AR transfection (see below). The DNA sequences encoding β1-AR (P08588.2), β2-AR (NP_000015.1), or β3-AR (NP_000016.1) were cloned into a pCI-Neo expression vector (Promega, WI, USA). CHO-K1 cells expressing β1-AR, β2-AR, or β3-AR were constructed by transfection with the appropriate plasmid DNA (β1-, β2-, or β3-AR) using Lipofectamine 2000 (Life Technologies Japan Ltd., Tokyo, Japan), according to the manufacturer’s instructions. […] Lipofectamine was diluted with Opti-MEM (0.5 μL Lipofectamine/25 μL Opti-MEM) and incubated for 5 min at room temperature. Solutions containing plasmid DNA and Lipofectamine, respectively, were mixed in equal amounts and incubated for 20 min at room temperature. […] The transfected CHO-K1 cells were then cultured for about 24 h and used for the following experiments. Similar experiments were performed after reducing the amounts of transfected plasmid DNA to 0.05 and 0.025 μg.
(§2) Cells that had been cultured for about 24 h after transfection were subjected to cAMP assay.
(§3) In the cAMP assay, the half-maximal effective concentration (EC50) value was calculated for each agonist based on its concentration–response curve using GraphPad Prism 6.0 nonlinear regression analysis.

β1-AR = molecular target: β1-AR; parameters: method as in PMID 22430195; details: binding assays; read-out: inhibition constant (Ki) β1-AR; cited from earlier work
β3-AR = details: recent study comparing vibegron and mirabegron; cited from earlier work
human β1-AR = molecular target: T1, human β1-AR (Homo sapiens, UniProt P08588); assay: cAMP accumulation in CHO-K1 cells expressing human β1-AR; type: cell-based;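 note: cells transiently transfected with a β1-AR expression plasmid, seeded in 96-well plates and assayed for cAMP about 24 h after transfection across agonist concentration–response curves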
T1 construct: expressed in transfected cells; host or cells: CHO-K1 cells, transient transfection with pCI-Neo plasmid (Lipofectamine 2000)
Protocol: as §1, §2, §3

[1] = unbound plasma concentrations at once-daily 50 mg clinical dose; type: in vivo, human; details: for Cmax,u (unbound maximum plasma concentration): calculated from Cmax and plasma-protein-binding rate; for Cmin,u (unbound minimum plasma concentration): calculated from Cmin and plasma-protein-binding rate
β2-AR = molecular target: β2-AR; parameters: method as in PMID 22430195; details: binding assays; read-out: inhibition constant (Ki) β2-AR; cited from earlier work
human β2-AR = human β2-AR (Homo sapiens, UniProt P07550, E27Q/G16R); assay: cAMP accumulation in CHO-K1 cells expressing human β2-AR; details: for Intrinsic activity β2-AR: isoproterenol max = 1.00
Protocol: as §1, §2, §3

[2] = tested on: isolated rat bladder strips; parameters: method as in PMID 24213882; details: cited from earlier work
[3] = 52-week, cited from earlier work
[4] = therapeutic doses, clinical trials; cited from earlier work
[5] = TF 0.05 μg/well, isoproterenol max = 1.00
[6] = TF 0.1 μg/well, 347 fmol/mg, concentration producing 50% of the maximal response induced by isoproterenol
[7] = CHO-K1, TF 0.1 μg/well plasmid DNA, cAMP accumulation
[8] = TF 0.1 μg/well, maximal response of isoproterenol = 1.00
[9] = CHO-K1, TF 0.1 μg/well plasmid DNA, cAMP accumulation, read-out: EC50 β1-AR
[10] = TF 0.025 μg/well, isoproterenol max = 1.00
[11] = TF 0.025 μg/well, read-out: EC50 β1-AR
[12] = TF 0.05 μg/well, read-out: EC50 β1-AR
[13] = EC50 β2-AR, CHO-K1, TF 0.1 μg/well plasmid DNA, cAMP accumulation

T1 sequence (P08588 whole entry): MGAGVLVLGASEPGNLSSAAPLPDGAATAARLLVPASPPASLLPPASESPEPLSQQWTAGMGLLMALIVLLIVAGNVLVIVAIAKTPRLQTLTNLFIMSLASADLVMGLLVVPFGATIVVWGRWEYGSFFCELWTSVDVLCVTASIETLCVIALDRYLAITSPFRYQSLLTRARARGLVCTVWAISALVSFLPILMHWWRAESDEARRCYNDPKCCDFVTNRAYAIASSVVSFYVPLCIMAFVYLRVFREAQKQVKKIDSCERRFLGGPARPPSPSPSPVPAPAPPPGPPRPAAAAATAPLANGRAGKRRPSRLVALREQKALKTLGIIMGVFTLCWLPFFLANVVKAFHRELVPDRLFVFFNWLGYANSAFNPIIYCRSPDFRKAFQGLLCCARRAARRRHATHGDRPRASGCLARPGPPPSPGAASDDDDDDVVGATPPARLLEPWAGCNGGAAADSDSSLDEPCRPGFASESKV
Sequence of human β3-AR (P13945 whole entry): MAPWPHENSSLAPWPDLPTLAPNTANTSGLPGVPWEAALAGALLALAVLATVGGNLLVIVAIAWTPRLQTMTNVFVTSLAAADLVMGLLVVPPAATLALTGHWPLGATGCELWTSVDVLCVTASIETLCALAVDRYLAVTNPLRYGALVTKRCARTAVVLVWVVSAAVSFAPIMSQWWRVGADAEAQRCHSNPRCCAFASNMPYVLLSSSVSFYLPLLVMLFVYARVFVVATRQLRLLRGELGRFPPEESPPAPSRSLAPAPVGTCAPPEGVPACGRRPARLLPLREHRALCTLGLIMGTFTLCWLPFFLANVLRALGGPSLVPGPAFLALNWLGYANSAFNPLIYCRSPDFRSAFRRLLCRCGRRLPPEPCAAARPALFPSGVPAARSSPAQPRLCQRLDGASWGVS

Structure (SMILES) | Iso50 (human β3-AR; TF 0.025 μg/well, 116 fmol/mg) | Iso50 (human β3-AR; TF 0.05 μg/well, 222 fmol/mg) | Intrinsic activity β3-AR (human β3-AR; [5]) | Iso50 (human β3-AR; [6]) | EC50 (human β3-AR; [7]) | EC50 (human β3-AR; TF 0.025 μg/well) | EC50 (human β3-AR; TF 0.05 μg/well) | Intrinsic activity β3-AR (human β3-AR; [8]) | β3-AR selectivity vs β1-AR (human β3-AR; TF 0.1 μg/well) | β3-AR selectivity vs β2-AR (human β3-AR; TF 0.1 μg/well) | EC50 (human β1-AR; [9]) | Intrinsic activity β1-AR (human β1-AR; [10]) | EC50 (human β1-AR; [11]) | Intrinsic activity β1-AR (human β1-AR; [5]) | EC50 (human β1-AR; [12]) | Intrinsic activity β1-AR (human β1-AR; [8]) | EC50 (human β2-AR; [13]) | EC50 (human β2-AR; EC50 β2-AR, TF 0.025 μg/well) | EC50 (human β2-AR; EC50 β2-AR, TF 0.05 μg/well) | Intrinsic activity β2-AR (human β2-AR; TF 0.05 μg/well) | also measured
CC(C)NC[C@H](O)c1ccc(O)c(O)c1 [Isoproterenol, (–)-isoprenaline (+)-bitartrate] | 78.0 ± 10.9 nM | 37.9 ± 6.40 nM | (0.96 ± 0.02) | 11.8 ± 1.78 nM | – | – | – | – | – | – | – | – | – | – | – | – | – | – | – | – | –
Nc1nc(CC(=O)Nc2ccc(CCNC[C@H](O)c3ccccc3)cc2)cs1 [Mirabegron, mirabegron] | 26.9 ± 7.51 nM | 4.45 ± 0.66 nM | (0.84 ± 0.04) | 1.32 ± 0.26 nM | 1.15 ± 0.24 nM | 4.17 ± 0.89 nM | 2.81 ± 0.6 nM | (0.94 ± 0.02) | 517 | 496 | 594 ± 122 nM | (0.25 ± 0.03) | > 10000 nM | (0.38 ± 0.02) | > 10000 nM | (0.59 ± 0.02) | 570 ± 235 nM | > 10000 nM | > 10000 nM | (0.31 ± 0.05) | Iso50 (human β3-AR; TF 0.025 μg/well, 116 fmol/mg, listed as mirabegron): 26.9 nM; Intrinsic activity β3-AR (human β3-AR; TF 0.05 μg/well, isoproterenol max = 1.00, listed as mirabegron): 0.84; Intrinsic activity β3-AR (human β3-AR; TF 0.1 μg/well, maximal response of isoproterenol = 1.00, listed as mirabegron): 0.94; cAMP activity at Cmax,u (human β3-AR): about 53%; cAMP activity at Cmin,u (human β3-AR): about 27%; Ki (β1-AR): 383 nM; IA (Emax) (β3-AR): 80.4%; Cmax,u (unbound maximum plasma concentration) [1]: 20 nM; Cmin,u (unbound minimum plasma concentration) [1]: 3 nM; Ki (β2-AR): 977 nM; attenuation of bladder relaxant effect after pretreatment, washout and fresh addition [2]: did not produce such attenuation
Cc1cc(OCC(=O)O)c(C)cc1CCN[C@@H](C)[C@H](O)c1ccc(O)cc1 [Ritobegron, ritobegron] | 943 ± 244 nM | 303 ± 60.7 nM | (1.00 ± 0.07) | 81.5 ± 15.4 nM | 80.8 ± 12.6 nM | 1520 ± 950 nM | 398 ± 104 nM | (0.99 ± 0.02) | >124 | 28.1 | > 10000 nM | (0.04 ± 0.01) | > 10000 nM | (0.11 ± 0.02) | > 10000 nM | (0.33 ± 0.03) | 2270 ± 1340 nM | > 10000 nM | > 10000 nM | (0.32 ± 0.05) | Iso50 (human β3-AR; TF 0.025 μg/well, 116 fmol/mg, listed as ritobegron): 943 nM; Intrinsic activity β3-AR (human β3-AR; TF 0.05 μg/well, isoproterenol max = 1.00, listed as ritobegron): 1.00; Intrinsic activity β3-AR (human β3-AR; TF 0.1 μg/well, maximal response of isoproterenol = 1.00, listed as ritobegron): 0.99
O=C(O)c1cccc(-c2cccc(NCCNC[C@H](O)c3cccc(Cl)c3)c2)c1 [Solabegron, solabegron] | 252 ± 78.4 nM | 119 ± 27.1 nM | (0.91 ± 0.10) | 31.0 ± 10.8 nM | 27.6 ± 9.08 nM | 83.6 ± 29 nM | 85.1 ± 5.84 nM | (0.96 ± 0.03) | 21.3 | >362 | 588 ± 105 nM | (0.25 ± 0.06) | > 10000 nM | (0.28 ± 0.04) | > 10000 nM | (0.60 ± 0.04) | > 10000 nM | > 10000 nM | > 10000 nM | (0.20 ± 0.02) | Iso50 (human β3-AR; TF 0.025 μg/well, 116 fmol/mg, listed as solabegron): 252 nM; Intrinsic activity β3-AR (human β3-AR; TF 0.05 μg/well, isoproterenol max = 1.00, listed as solabegron): 0.91; Intrinsic activity β3-AR (human β3-AR; TF 0.1 μg/well, maximal response of isoproterenol = 1.00, listed as solabegron): 0.96
O=C(Nc1ccc(C[C@@H]2CC[C@H]([C@H](O)c3ccccc3)N2)cc1)[C@@H]1CCc2nccc(=O)n21 [Vibegron] | 22.5 ± 14.5 nM | 3.74 ± 0.73 nM | (1.00 ± 0.03) | 1.26 ± 0.29 nM | 1.26 ± 0.4 nM | 12.5 ± 2.41 nM | 3.83 ± 0.93 nM | (0.93 ± 0.05) | >7937 | >7937 | > 10000 nM | (0.00 ± 0.00) | > 10000 nM | (0.02 ± 0.01) | > 10000 nM | (0.10 ± 0.01) | > 10000 nM | > 10000 nM | > 10000 nM | (0.09 ± 0.03) | Iso50 (human β3-AR; TF 0.025 μg/well, 116 fmol/mg, listed as vibegron): 22.5 nM; Intrinsic activity β3-AR (human β3-AR; TF 0.05 μg/well, isoproterenol max = 1.00, listed as vibegron): 1.00; β3-AR selectivity, higher than for β1-ARs (human β3-AR; TF 0.1 μg/well): > 7937 fold; β3-AR selectivity, higher than for β2-ARs (human β3-AR; TF 0.1 μg/well): > 7937 fold; Intrinsic activity β3-AR (human β3-AR; TF 0.1 μg/well, maximal response of isoproterenol = 1.00, listed as vibegron): 0.93; cAMP activity at Cmax,u (human β3-AR): about 82%; cAMP activity at Cmin,u (human β3-AR): ~59%; attenuation of efficacy ([3]; 50 mg and 100 mg): not observed; vital signs (systolic blood pressure, diastolic blood pressure, and pulse) ([3]; supratherapeutic dose 100 mg): did not affect vital signs; IA (Emax) (β3-AR): 99.2%; EC50 (human β1-AR; TF 0.1 μg/well, read-out: EC50 in cells expressing β1-ARs): > 10000 nM; β1-AR agonist activity (human β1-AR; cells TF 0.05 μg/well (245 fmol/mg)): no β1-AR agonist activity; Cmax,u (unbound maximum plasma concentration) [1]: 56 nM; Cmin,u (unbound minimum plasma concentration) [1]: 14 nM; EC50 (human β2-AR; EC50 in cells expressing β2-ARs, TF 0.1 μg/well): > 10000 nM; β2-AR agonist activity (human β2-AR; lowest β2-AR density 108 fmol/mg): no β2-AR agonist activity; incidence of increased blood pressure and hypertension [4]: does not affect the incidence of increased blood pressure and hypertension
CC(Cc1ccc(O)cc1)NCC(O)c1cc(O)cc(O)c1 (centres unmarked) [fenoterol] | – | – | – | – | – | – | – | – | – | – | – | – | – | – | – | – | – | – | – | – | attenuation of bladder relaxant effect after pretreatment, washout and fresh addition [2]: marked attenuation of the bladder relaxant effect
